Measurements published in patent US6814960B1, “Hydroxystilbene compounds used as microbicidal active substances” (Ciba Specialty Chemicals Corporation, priority 1998, dated 2004).

Legend:
Test in all cases: MIC value in microtitre plates (optical density)
Format in all cases: cell-based
[1] = tested on: Aspergillus niger ATCC 6275; conditions: microtitre plate, Sabouraud 2% glucose bouillon, 5 days at 28° C., optical density 620 nm, ≦20% growth; some data indicative values
Protocol: (§1) Determination of the Minimum Inhibiting Concentration (MIC Value) in Microtitre Plates
(§2) Casein/soybean flour peptone bouillon for the preparation of the precultures of the test bacteria and yeast.
(§3) Mycological slant agar for the preculture of moulds.
(§4) Examples of Test Organisms
(§5) The test substances are predissolved in dimethyl sulfoxide (DMSO) and tested in a serial dilution of 1:2.
(§6) Bacteria and yeast are cultured overnight in CASO bouillon, the mould on mycological slant agar and rinsed off with 10 ml of 0.85% sodium chloride solution (+0.1% TritonX-100).
(§7) All test organisms are adjusted to an organism count of 1.5×10^6 CFU/ml with 0.85% sodium chloride solution.
(§8) The test substances are prepipetted into microtitre plates in an amount of 8 μl per well.
(§9) Previously diluted organism substances are diluted 1:100 in CASO bouillon (bacteria and yeast) and Sabouraud 2% glucose bouillon (mould) and added to the test substances in an amount of 192 μl per well.
(§10) The test batches are incubated for 48 hours at 37° C. (bacteria and yeast) or for 5 days at 28° C. (mould).
(§11) After incubation, the growth is determined by reference to the turbidity of the test batches (optical density) at 620 nm in a microplate reader.
(§12) The minimum inhibiting concentration (MIC value) is the concentration of substance at which (compared with the growth control) an appreciable inhibition of the growth (≦20% growth) of the test organisms is ascertained.
(§13) One microtiter plate is used for each test organism and substance concentration. All substances tested in duplicate.

[2] = tested on: Candida albicans ATCC 10231; conditions: microtitre plate, CASO bouillon, 48 hours at 37° C., optical density 620 nm, ≦20% growth; some data indicative values
Protocol: as §1, §2, §3, §4, §5, §6, §7, §8, §9, §10, §11, §12, §13

[3] = tested on: Escherichia coli NCTC 8196; conditions: microtitre plate, CASO bouillon, 48 hours at 37° C., optical density 620 nm, ≦20% growth; some data indicative values
Protocol: as §1, §2, §3, §4, §5, §6, §7, §8, §9, §10, §11, §12, §13

[4] = tested on: Pseudomonas aeruginosa CIP A-22; conditions: microtitre plate, CASO bouillon, 48 hours at 37° C., optical density 620 nm, ≦20% growth; some data indicative values
Protocol: as §1, §2, §3, §4, §5, §6, §7, §8, §9, §10, §11, §12, §13

[5] = tested on: Staphylococcus hominis DSM 20328; conditions: microtitre plate, CASO bouillon, 48 hours at 37° C., optical density 620 nm, ≦20% growth; some data indicative values
Protocol: as §1, §2, §3, §4, §5, §6, §7, §8, §9, §10, §11, §12, §13

Row | Compound | MIC values A. niger [1] [ppm] | MIC values C. albicans [2] [ppm] | MIC values E. coli [3] [ppm] | MIC values P. aeruginosa [4] [ppm] | MIC values S. heminis [5] [ppm]
1 | COc1ccc(/C=C/c2ccc(C)cc2)cc1O [Comp. of formula 182] | >100 | >100 | >100 | >100 | >100
2 | CCOc1cc(/C=C/c2ccccc2C)ccc1O [Comp. of formula 171] | >100 | >100 | >100 | >100 | >100
3 | COc1cc(/C=C/c2ccccc2C)ccc1O [Comp. of formula 172] | >100 | 10 | >100 | >100 | >100
4 | Cc1ccccc1/C=C/c1ccccc1O [Comp. of formula 174] | 60 | 60 | 100 | >100 | 60
5 | COc1ccc(/C=C/c2cccc(C)c2O)cc1 [Comp. of formula 140] | 100 | >100 | >100 | >100 | >100
6 | Cc1ccc(/C=C/c2cccc(O)c2)cc1 [Comp. of formula 181] | 30 | 15 | 15 | 100 | 15
7 | CCOc1cc(/C=C/c2ccc(Cl)cc2)ccc1O [Comp. of formula 122] | >100 | >100 | >100 | >100 | >100
8 | Cc1cccc(/C=C/c2cccc3ccccc23)c1O [Comp. of formula 165] | 100 | >100 | >100 | >100 | 100
9 | COc1ccc(/C=C/c2cccc(O)c2)cc1 [Comp. of formula 132] | >100 | >100 | >100 | >100 | >100
10 | Cc1ccccc1/C=C/c1cccc(O)c1 [Comp. of formula 169] | 30 | 30 | 60 | 100 | 30
11 | COc1cc(/C=C/c2cccc3ccccc23)ccc1O [Comp. of formula 160] | 100 | >100 | >100 | >100 | >100
12 | COc1cc(/C=C/c2ccccc2)cc(O)c1OC [Comp. of formula 114] | 100 | >100 | 100 | >100 | >100
13 | Cc1ccccc1/C=C/c1cccc(C)c1O [Comp. of formula 177] | 60 | 60 | 60 | >100 | 30
14 | Cc1cccc(/C=C/c2ccccc2)c1O [Comp. of formula 116] | 60 | 60 | 60 | 100 | 60
15 | COc1ccc(/C=C/c2cccc3ccccc23)cc1O [Comp. of formula 158] | >100 | >100 | >100 | >100 | >100
16 | COc1ccc(/C=C/c2ccc(O)c(OC)c2)cc1 [Comp. of formula 135] | >100 | >100 | >100 | >100 | >100
17 | Cc1ccc(/C=C/c2ccccc2O)cc1 [Comp. of formula 186] | 60 | 30 | 30 | 100 | 30

Row | Compound | MIC values A. niger [1] [ppm] | MIC values C. albicans [2] [ppm] | MIC values E. coli [3] [ppm] | MIC values P. aeruginosa [4] [ppm] | MIC values S. heminis [5] [ppm]
18 | Cc1ccccc1/C=C/c1ccc(O)cc1 [Comp. of formula 168] | 30 | 15 | 30 | 100 | 7.5
19 | COc1ccc(/C=C/c2ccc(OC)c(O)c2)cc1 [Comp. of formula 133] | >100 | >100 | >100 | >100 | >100
20 | CCOc1cc(/C=C/c2ccc(C)cc2)ccc1O [Comp. of formula 183] | >100 | >100 | >100 | >100 | >100
21 | CCOc1cc(/C=C/c2cccc3ccccc23)ccc1O [Comp. of formula 159] | 100 | >100 | >100 | >100 | >100
22 | Cc1cccc(/C=C/c2ccc(Cl)cc2)c1O [Comp. of formula 128] | 100 | >100 | >100 | >100 | >100
23 | CCOc1cc(/C=C/c2ccccc2)ccc1O [Comp. of formula 110] | >100 | >100 | >100 | >100 | >100
24 | CCOc1cc(/C=C/c2ccc(-c3ccccc3)cc2)ccc1O [Comp. of formula 147] | >100 | >100 | >100 | >100 | >100
25 | Oc1ccccc1/C=C/c1ccccc1 [Comp. of formula 113] | 60 | 60 | 100 | >100 | 100
26 | COc1cc(/C=C/c2ccc(C)cc2)cc(O)c1OC [Comp. of formula 187] | >100 | >100 | >100 | >100 | >100
27 | COc1cc(/C=C/c2ccc(-c3ccccc3)cc2)ccc1O [Comp. of formula 148] | >100 | >100 | >100 | >100 | >100
28 | COc1cc(/C=C/c2cccc3ccccc23)cc(O)c1OC [Comp. of formula 163] | 100 | >100 | >100 | >100 | >100
29 | COc1cc(/C=C/c2ccc(Cl)cc2)cc(O)c1OC [Comp. of formula 126] | 100 | 100 | >100 | >100 | >100
30 | COc1cc(/C=C/c2ccc(-c3ccccc3)cc2)cc(O)c1OC [Comp. of formula 151] | >100 | >100 | >100 | >100 | >100
31 | COc1cc(/C=C/c2ccc(Cl)cc2)ccc1O [Comp. of formula 123] | 100 | >100 | >100 | >100 | >100
32 | Oc1ccccc1/C=C/c1ccc(Cl)cc1 [Comp. of formula 125] | 60 | 60 | 15 | 100 | 60
33 | COc1ccc(/C=C/c2ccccc2)cc1O [Comp. of formula 109] | 100 | >100 | >100 | >100 | >100
